In patent US10227331B2 (priority 2015, dated 2019):
Where two headings read alike, the source gives them in different places.

Tests used:
[1] = target: IMP-1 (Serratia marcescens, UniProt P52699); experiment: biochemical; type: biochemical; conditions: CCF2-FA substrate, 2 hours at 25° C; read-out: IMP-1 IC50
Summary of the method: (§1)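 Semi-log dose-response curves, fitted with a 4-parameter model, gave IC50s. The underlying signal was CCF2-FA fluorescence following 2 hours at 25° C with enzyme, substrate and inhibitor combined.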

[2] = target: NDM-1 (Klebsiella pneumoniae, UniProt C7C422); experiment: biochemical; type: biochemical
NDM-1, sequence (C7C422 whole entry, looked up, species assumed): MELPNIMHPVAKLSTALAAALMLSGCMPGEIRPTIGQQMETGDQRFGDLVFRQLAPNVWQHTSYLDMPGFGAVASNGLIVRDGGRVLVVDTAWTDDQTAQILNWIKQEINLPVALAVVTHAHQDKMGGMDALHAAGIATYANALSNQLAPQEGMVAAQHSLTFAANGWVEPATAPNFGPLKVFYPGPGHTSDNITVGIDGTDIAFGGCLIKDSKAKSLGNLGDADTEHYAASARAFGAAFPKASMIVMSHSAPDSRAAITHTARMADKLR
Summary of the method: as §1

[3] = test system: P. aeruginosa expressing IMP-1, efflux+ (MB9798); type: cell-based, Pseudomonas aeruginosa; conditions: for P. aeruginosa expressing IMP-1, efflux+ (MB9798) MITC95: imipenem at 2 μg/mL, in the presence of a class A, C, D serine β-lactamase inhibitor closely related to relebactam; for Efflux ratio: ratio MITC95 PA_9798/MITC95 PA_9799
Source text: (§2) The strain background is Pseudomonas aeruginosa PAO1.

[4] = target: VIM-1 (Pseudomonas aeruginosa (strain ATCC 15692 / DSM 22644 / CIP 104116 / JCM 14847 / LMG 12228 / 1C / PRS 101 / PAO1), UniProt A0A0F7KYQ8); experiment: biochemical; conditions: CCF2-FA substrate, 2 hours at 25° C
Summary of the method: as §1

[5] = test system: P. aeruginosa expressing IMP-1, efflux− (MB9799); experiment: Efflux: concentration of MBL inhibitor which restores susceptibility to imipenem; type: cell-based, Pseudomonas aeruginosa; conditions: imipenem at 2 μg/mL, in the presence of a class A, C, D serine β-lactamase inhibitor closely related to relebactam
Source text: as §2

[6] = test system: Serratia marcescens expressing IMP-1 (CL5741); type: cell-based; conditions: with imipenem 1 μg/ml, 95% inhibition of bacterial growth; for Serratia marcescens MITC95: IMP-1 (CL5741)
Summary of the method: (§3)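 Restoration of imipenem susceptibility (1 μg/ml imipenem) was judged by absorbance after 22–24 h at 35° C. Test compound was added to bacteria suspended 1:100 in 1.1× CAMHB from overnight blood-agar cultures.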

[7] = test system: Escherichia coli expressing NDM-1 (CLB30005, CLB30016); type: cell-based; conditions: with imipenem 1 μg/ml, 95% inhibition of bacterial growth; for Escherichia coli MITC95: NDM-1 (CLB30016)
Summary of the method: as §3

[8] = test system: Klebsiella pneumoniae expressing VIM-1 (IHMA599644); type: cell-based; conditions: with imipenem 1 μg/ml, 95% inhibition of bacterial growth; for Klebsiella pneumoniae MITC95: VIM-1 (IHMA599644)
Summary of the method: as §3

[9] = CCF2-FA substrate, 2 hours at 25° C, read-out: NDM-1 IC50

IMP-1, sequence (P52699 whole entry, looked up, species assumed): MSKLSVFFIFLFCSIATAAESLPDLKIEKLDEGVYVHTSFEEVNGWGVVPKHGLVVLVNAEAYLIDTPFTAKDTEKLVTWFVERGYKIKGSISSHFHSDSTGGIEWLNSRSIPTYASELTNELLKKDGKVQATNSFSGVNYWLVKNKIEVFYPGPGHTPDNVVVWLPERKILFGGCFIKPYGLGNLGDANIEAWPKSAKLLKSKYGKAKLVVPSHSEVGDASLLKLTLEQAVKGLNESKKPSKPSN

Compound | IC50 [1] | IC50 [2, 9] | P. aeruginosa expressing IMP-1, efflux+ (MB9798) MITC95 [3] | Efflux ratio [3] | IC50 [4] | P. aeruginosa expressing IMP-1, efflux− (MB9799) MITC95 [5] | Serratia marcescens MITC95 [6] | Escherichia coli MITC95 [7] | Klebsiella pneumoniae MITC95 [8] | Serratia marcescens expressing IMP-1 (CL5741) MITC95 [6] | Escherichia coli expressing NDM-1 (CLB30016) MITC95 [7] | Klebsiella pneumoniae expressing VIM-1 (IHMA599644) MITC95 [8] | IC50 [2]
NC[C@@H](O)CS(=O)(=O)c1ccc(-c2cc(I)cc3[nH]c(N)nc23)c(-c2nn[nH]n2)c1S(N)(=O)=O [Example 379, (R)-6-((3-amino-2-hydroxypropyl)sulfonyl)-3-(2-amino-6-iodo-1H-benzo[d]imidazol-4-yl)-2-(2H-tetrazol-5-yl)benzenesulfonamide] | 0.17 nM | 0.0809 nM | 0.3906 µM | 0.50 | 0.123 nM | 0.7813 µM | 0.7813 µM | 0.7813 µM | 1.563 µM | – | – | – | –
NC1CCC(c2ccc(S(=O)(=O)CC3CNC3)c(S(N)(=O)=O)c2-c2nnn[nH]2)CC1 (stereo not drawn) [Example 203, 3-(4-aminocyclohexyl)-6-((azetidin-3-ylmethyl)sulfonyl)-2-(1H-tetrazol-5-yl)benzenesulfonamide] | 22.9 nM | 11.2 nM | 3.125 µM | 4.00 | 0.591 nM | 0.7813 µM | – | – | – | 1.563 µM | 3.125 µM | 1.563 µM | –
C[C@H](N)CS(=O)(=O)c1ccc(-c2cccc3sc(N)nc23)c(-c2nn[nH]n2)c1S(N)(=O)=O [Example 93, 3-(2-aminobenzo[d]thiazol-4-yl)-6-((S)-2-aminopropylsulfonyl)-2-(2H-tetrazol-5-yl)benzenesulfonamide] | 0.13 nM | 0.0732 nM | 0.7813 µM | 1.00 | 0.13 nM | 0.7813 µM | – | – | – | 0.7813 µM | 1.172 µM | 3.125 µM | –
NS(=O)(=O)c1c(S(=O)(=O)CCO)ccc(-c2cccc3c2ccc[n+]3[O-])c1-c1nn[nH]n1 [Example 320, 5-(4-((2-hydroxyethyl)sulfonyl)-3-sulfamoyl-2-(2H-tetrazol-5-yl)phenyl)quinoline 1-oxide] | 1.06 nM | 0.939 nM | 25 µM | 4.00 | 0.208 nM | 6.25 µM | 25 µM | 50 µM | 12.5 µM | – | – | – | –
Nc1nc2c(-c3ccc(S(=O)(=O)C4CCNCC4)c(S(N)(=O)=O)c3-c3nn[nH]n3)cccc2[s+]1[O-] (stereo not drawn) [Example 316, 3-(2-amino-1-oxidobenzo[d]thiazol-4-yl)-6-(piperidin-4-ylsulfonyl)-2-(2H-tetrazol-5-yl)benzenesulfonamide] | 0.835 nM | 0.284 nM | 6.25 µM | 1.00 | 0.779 nM | 6.25 µM | 12.5 µM | 6.25 µM | 12.5 µM | – | – | – | –
Nc1nc2cccc(-c3ccc(S(=O)(=O)C4CCNCC4)c(S(N)(=O)=O)c3-c3nn[nH]n3)c2[nH]1 [Example 42, 3-(2-amino-3H-benzo[d]imidazol-4-yl)-6-(piperidin-4-ylsulfonyl)-2-(2H-tetrazol-5-yl)benzenesulfonamide] | 1.19 nM | 0.177 nM | 0.7813 µM | 1.00 | 0.306 nM | 0.7813 µM | – | – | – | 1.563 µM | 0.5859 µM | 1.563 µM | –
NS(=O)(=O)c1c(S(=O)(=O)C2CNC2)ccc(-c2cnc3ccoc3c2)c1-c1nnn[nH]1.O=C(O)C(F)(F)F [Example 101, 3-((4-(furo[3,2-b]pyridin-6-yl)-2-sulfamoyl-3-(1H-tetrazol-5-yl)phenyl)sulfonyl)azetidin-1-ium 2,2,2-trifluoroacetate] | 1.48 nM | 0.905 nM | 12.5 µM | 8.00 | 0.399 nM | 1.563 µM | – | – | – | 3.125 µM | 3.125 µM | 6.25 µM | –
CCn1c(N)nc2c(-c3ccc(S(=O)(=O)C4CNC4)c(S(N)(=O)=O)c3-c3nn[nH]n3)cccc21 [Example 283, 3-(2-amino-1-ethyl-1H-benzo[d]imidazol-4-yl)-6-(azetidin-3-ylsulfonyl)-2-(2H-tetrazol-5-yl)benzenesulfonamide] | 0.496 nM | 0.116 nM | 6.25 µM | 4.00 | 0.348 nM | 1.563 µM | 1.563 µM | 0.3906 µM | 1.563 µM | – | – | – | –
NCCN1CC(S(=O)(=O)c2ccc(-c3cccc4[nH]c(N)nc34)c(-c3nn[nH]n3)c2S(N)(=O)=O)C1 [Example 51, 3-(2-amino-1H-benzo[d]imidazol-4-yl)-6-(1-(2-aminoethyl)azetidin-3-ylsulfonyl)-2-(2H-tetrazol-5-yl)benzenesulfonamide] | 1.31 nM | 0.145 nM | 0.7813 µM | 1.00 | 0.426 nM | 0.7813 µM | – | – | – | 0.7813 µM | 0.3906 µM | 1.563 µM | –
NCCS(=O)(=O)c1ccc(-c2ccc3c(c2)C(=O)NC3)c(-c2nnn[nH]2)c1S(N)(=O)=O.O=C(O)C(F)(F)F [Example 140, 2-((4-(3-oxoisoindolin-5-yl)-2-sulfamoyl-3-(1H-tetrazol-5-yl)phenyl)sulfonyl)ethanaminium 2,2,2-trifluoroacetate] | 0.488 nM | 0.844 nM | 3.125 µM | 4.00 | 0.223 nM | 0.7813 µM | – | – | – | 1.563 µM | 1.563 µM | 1.563 µM | –
NS(=O)(=O)c1c(S(=O)(=O)C2CNC2)ccc(-c2cccc3[nH]c(C(=O)NCC(=O)O)nc23)c1-c1nn[nH]n1 [Example 257, (4-(4-(azetidin-3-yl sulfonyl)-3-sulfamoyl-2-(2H-tetrazol-5-yl)phenyl)-1H-benzo[d]imidazole-2-carbonyl)glycine] | 1.2 nM | 0.123 nM | 25 µM | 2.00 | 0.428 nM | 12.5 µM | 25 µM | 25 µM | 50 µM | – | – | – | –
NCCS(=O)(=O)c1ccc(C2CCNc3ccccc32)c(-c2nn[nH]n2)c1S(N)(=O)=O (stereo not drawn) [Example 272, 6-(2-aminoethylsulfonyl)-3-(1,2,3,4-tetrahydroquinolin-4-yl)-2-(2H-tetrazol-5-yl)benzenesulfonamide] | 6.06 nM | – | 100 µM | 63.98 | 0.64 nM | 1.563 µM | 6.25 µM | 3.125 µM | 6.25 µM | – | – | – | 1.84 nM
NCCS(=O)(=O)c1ccc(-c2ccc3scnc3c2)c(-c2nnn[nH]2)c1S(N)(=O)=O.O=C(O)C(F)(F)F [Example 174, 2-((4-(benzo[d]thiazol-5-yl)-2-sulfamoyl-3 (1H-tetrazol-5-yl)phenyl)sulfonyl)ethanaminium 2,2,2-trifluoroacetate] | 0.22 nM | 0.392 nM | 3.125 µM | 8.00 | 0.14 nM | 0.3906 µM | – | – | – | 0.7813 µM | 0.3906 µM | 1.563 µM | –
